In BigSolDB 2.1:

O=C1NS(=O)(=O)c2ccccc21
solubility (mole fraction)
Details | 278.15 K | 283.15 K | 288.15 K | 293.15 K | 298.15 K | 303.15 K | 308.15 K | 313.15 K | 318.15 K | 323.15 K
in acetone | 0.0222 | 0.025 | 0.0286 | 0.0326 | 0.0374 | 0.0422 | 0.0484 | 0.0554 | 0.0635 | 0.071
in ethanol | 0.00486 | 0.00578 | 0.00686 | 0.00814 | 0.00964 | 0.0114 | 0.0134 | 0.0158 | 0.019 | 0.0231
in ethyl acetate | 0.00883 | 0.0111 | 0.0139 | 0.0169 | 0.0203 | 0.0241 | 0.0287 | 0.0342 | 0.0401 | 0.0474
in isobutanol | 0.00181 | 0.00222 | 0.00279 | 0.00355 | 0.00433 | 0.00538 | 0.00654 | 0.00791 | 0.00953 | 0.0114
in isopropanol | 0.00382 | 0.0045 | 0.00532 | 0.00632 | 0.00752 | 0.00895 | 0.0106 | 0.0126 | 0.015 | 0.0181
in methanol | 0.00542 | 0.00665 | 0.00806 | 0.00969 | 0.0115 | 0.0135 | 0.0157 | 0.0185 | 0.0217 | 0.0257
in n-propanol | 0.00311 | 0.00369 | 0.00439 | 0.00526 | 0.00621 | 0.00756 | 0.00902 | 0.0109 | 0.0129 | 0.0157
